Measurements taken from ChEMBL document CHEMBL1157275, “Biological activities of 7-epiclusianone” (J Nat Prod, 1999).
≈ marks a conversion by molar mass, not a printed value. Calls of active or inactive are those of the source. The rule behind the calls is not given here.

What was measured:
Trypanosoma cruzi [1] = experiment: Antitrypanosomal activity against Trypanosoma cruzi Y trypomastigotes infected in Swiss albino mouse assessed as mortality rate at 100 mg/kg, po daily for 4 days assessed after 6 to 9 days; assay type: functional, organism-based; design: dose 100 mg/kg
Trypanosoma cruzi [2] = experiment: Antitrypanosomal activity against Trypanosoma cruzi Y trypomastigotes infected in Swiss albino mouse assessed as reduction in parasitaemia at 500 mg/kg, po after 6 hrs; assay type: functional, organism-based; design: dose 500 mg/kg
[3] = tested on: Cladosporium sphaerospermum; experiment: Antifungal activity against Cladosporium sphaerospermum; assay type: functional, organism-based
Trypanosoma cruzi [4] = experiment: Antitrypanosomal activity against Trypanosoma cruzi Y trypomastigotes infected in Swiss albino mouse blood assessed as reduction of parasite number at 250 ug/mL after 24 hrs; assay type: functional; design: scale not given: the % may be the effect or the level left
Trypanosoma cruzi [5] = experiment: Antitrypanosomal activity against Trypanosoma cruzi Y trypomastigotes infected in Swiss albino mouse blood assessed as reduction of parasite number at 125 ug/mL after 24 hrs; assay type: functional; design: scale not given: the % may be the effect or the level left
Trypanosoma cruzi [6] = experiment: Antitrypanosomal activity against Trypanosoma cruzi Y trypomastigotes infected in Swiss albino mouse blood assessed as reduction of parasite number at 500 ug/mL after 24 hrs; assay type: functional; design: scale not given: the % may be the effect or the level left
[7] = Toxicity in Artemia salina; assay type: organism-based; details: in vivo
Staphylococcus aureus = experiment: Antibacterial activity against Staphylococcus aureus; assay type: functional
[8] = tested on: Clavibacter michiganensis subsp. michiganensis; experiment: Antimicrobial activity against Clavibacter michiganensis subsp. michiganensis; assay type: functional
Biomphalaria glabrata = experiment: Molluscicidal activity against Biomphalaria glabrata at 20 ppm; assay type: functional, organism-based
Listeria monocytogenes = experiment: Antimicrobial activity against Listeria monocytogenes; assay type: functional

SMILES | Activity (Trypanosoma cruzi [1]) | Activity (Trypanosoma cruzi [2]) | Activity [3] | Activity (Trypanosoma cruzi [4]) [%] | Activity (Trypanosoma cruzi [5]) [%] | Activity (Trypanosoma cruzi [6]) [%] | LC50 [7] [µM] | IC100 (Staphylococcus aureus) [µg/mL] | MIC [8] [µg/mL] | Activity (Biomphalaria glabrata) | IC100 (Listeria monocytogenes) [µg/mL]
O=C(Cn1ccnc1[N+](=O)[O-])NCc1ccccc1 | Active | Active | – | – | – | – | – | – | – | – | –
CC(C)=CC[C@H]1C[C@]2(CC=C(C)C)C(=O)C(C(=O)c3ccccc3)=C(O)[C@](CC=C(C)C)(C2=O)C1(C)C | inactive | Active | inactive | 38 | 17 | 92 | 49.7 | 80 | 4 (≈ 7.96 µM) | inactive | 80
